This is an account of results in patent US20260297060A1, “COMPOUNDS FOR THE DEGRADATION OF MUTANT BRAF” (C4 THERAPEUTICS, INC., priority 2023, published 2026).

Series [1] is described as follows: Example 7 pharmacokinetics assay for PKPD study (plasma, tumor, liver). The note with it: mouse, po, 100 mg/kg, p.o., single dose. Format: in vivo, BALB/c nude mice. As for the experimental part: For the PK and PD study, agents were administered to BALB/c nude mice bearing A375 human melanoma xenografts tumors. Dabrafenib, Compound 141, Compound 118, Compound 156, and Compound 180 were dosed p.o. once on day 1. Known BRAF inhibitor Dabrafenib was used as a positive control. Dabrafenib was dosed at 100 mg/kg. Compound 141, Compound 118, Compound 156, and Compound 180 were dosed at 10 mg/kg.
(§1) The plasma samples were collected at predetermined time points for PK analysis. The mice were euthanized at predetermined time points post the treatment. The blood samples were collected into the 1.5 mL Eppendorf tubes containing 15 μL of 0.5 M EDTA-K2. And then the anticoagulant blood samples were centrifuged at 2,500 g at 4° C. for 15 minutes. The plasma samples were separated into 2 aliquots. The 1st was used for PK analysis, and the 2nd served as backup. The samples were stored at −80° C. before bioanalysis.
The tumor samples were collected at predetermined time points for PK and WB analysis. The tumor was dissected out and split into 3 parts. The 1st part was used for PK analysis, the 2nd part was used for WB analysis and the last one served as backup for study. The samples were transferred into pre-labeled tubes and quickly froze in liquid nitrogen within 2 minutes after dissection. The samples were stored at −80° C. before bioanalysis.
(§2) Liver samples were collected at predetermined time points for PK analysis. The left lobe of the liver was dissected out and split into 2 parts. The 1st part was used for PK analysis and the 2nd part served as the backup for the study. The samples were transferred into pre-labeled tubes and quickly froze in liquid nitrogen within 2 minutes after dissection. The samples were stored at −80° C. before bioanalysis.
The harvested plasma and liver samples were processed for pharmacokinetics analysis by LC-MS/MS with a concentration range of 0.500-1000 ng/mL for Dabrafenib, Compound 118 and Compound 180 in plasma, 0.100~200 ng/ml for Dabrafenib in Liver and tumor homogenate, 50.0~50,000 ng/mL for Compound 141 in plasma and Liver homogenate, 1.00-1000 ng/ml for Compound 141 in tumor homogenate, 2.00~2000 ng/mL for Compound 118 and Compound 180 in Liver and 0.200~200 ng/ml in tumor homogenate, 1.00~2000 ng/mL for Compound 156 in plasma, 0.500-1000 ng/ml in liver and 0.500-1,000 ng/ml in tumor homogenate.

Series [2] is described as follows: Example 7 pharmacokinetics assay for efficacy study (plasma, liver). Format: in vivo, BALB/c nude mice. The note with it: mouse, po, 100 mg/kg, p.o., QD × 14 days. As for the experimental part:
For efficacy study, agents were tested in the A375 human melanoma xenografts. Compound 118, Compound 156, and Compound 180 were administered to BALB/c nude mice bearing A375 xenografts from day 0 and dosed p.o. twice per day (BID). Compound 141 was administered from day 0 and dosed p.o. twice per day (BID) or dosed p.o. daily (QD) from day 1. Compound 141, Compound 118, Compound 156, and Compound 180 were dosed at 10 mg/kg for 14 days. The known BRAF inhibitor Dabrafenib was used as a positive control. Dabrafenib was administered from day 1 and dosed p.o. daily (QD) for 14 days and dosed at 100 mg/kg.
as §1, §2
The harvested plasma and liver samples were processed for pharmacokinetics analysis by LC-MS/MS with a concentration range of 0.500~500 ng/mL for Dabrafenib in plasma and liver homogenate, 20.0~20,000 ng/mL for Compound 141, Compound 180 and Compound 118 in plasma and liver, 10.0~10,000 ng/mL for Compound 156 in plasma and liver.

Where [3] appears, read: liver, read-out: Concentration in Liver (mean ± SEM).
[4] abbreviates: plasma, read-out: Concentration in Plasma (mean ± SEM).
Setting [5] is: tumor, read-out: Concentration in Tumor (mean ± SEM).

Molecules are shown by their SMILES. Where two headings read alike, the source gives them in different places.

Regarding `CC(C)(C)c1nc(-c2cccc(NS(=O)(=O)c3c(F)cccc3F)c2F)c(-c2ccnc(N)n2)s1` [Dabrafenib, dabrafenib, reference compound], the concentration at 6 h in series [1] (setting [3]) came to 2450 ± 737 ng/g; in series [1] (setting [4]), 1140 ± 390 ng/mL; in series [1] (setting [5]), 702 ± 341 ng/g; in series [2] (setting [3]), 195 ± 32.1 ng/g; in series [2] (setting [4]), 80.5 ± 17.3 ng/mL. The concentration at 12 h in series [1] (setting [3]) is 1110 ± 453 ng/g; in series [1] (setting [4]), 336 ± 137 ng/mL; in series [1] (setting [5]), 242 ± 96 ng/g. For the same compound, the values for the concentration at 1 h in series [1] (setting [4]) and in series [1] (setting [5]) were 7370 ± 865 ng/mL and 9520 ± 2050 ng/g, respectively. Further, the concentration at 24 h is 3.88 ± 2.43 ng/mL in series [1] (setting [4]) and 5.53 ± 0.951 ng/g in series [1] (setting [5]).
